Laboratory results from patent publication US4508663A, “Process for preparing thiosulfenamide derivatives of N-phosphonomethylglycinonitriles” (Monsanto Company, priority 1983, dated 1985).

Tests used:
Experiment in all cases: post-emergence herbicidal activity, greenhouse
Type in all cases: in vivo
Wheat = settings: Table II
In short: (§1)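 Plants grown from seed or perennial propagules in greenhouse soil pans were sprayed at two to three weeks with compound solution or suspension containing about 0.4% emulsifier, at the stated application rates. Injury relative to untreated controls was scored at approximately two and four weeks after treatment on a post-emergence activity index.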

Cocklebur = test system: Cocklebur
In short: as §1

Quackgrass = settings: Table I, 4 WAT
In short: as §1

Yellow Nutsedge = settings: Table I, 4 WAT
In short: as §1

Wild Buckwheat = settings: Table II
In short: as §1

Rice = settings: Table II
In short: as §1

Morningglory = test system: Morningglory
In short: as §1

Johnsongrass = settings: Table I, 4 WAT
In short: as §1

Canada Thistle = settings: Table I, 4 WAT
In short: as §1

Velvetleaf = test system: Velvetleaf
In short: as §1

Smartweed = settings: Table I, 4 WAT
In short: as §1

Crabgrass = settings: Table II
In short: as §1

Barnyardgrass = test system: Barnyardgrass
In short: as §1

Sorghum = settings: Table II
In short: as §1

Soybean = settings: Table II
In short: as §1

Hemp Sesbania = settings: Table II
In short: as §1

Sugar Beet = settings: Table II
In short: as §1

Downy Brome = test system: Downy Brome
In short: as §1

Panicum Spp = settings: Table II
In short: as §1

Lambsquarters = test system: Lambsquarters
In short: as §1

Compound: CSSN(CC#N)CP(=O)(Oc1ccccc1)Oc1ccccc1 [VII]
- post-emergence herbicidal activity index (Wheat; 2 WAT, 0.056 kg/h): 0 (0-24% control)
- post-emergence herbicidal activity index (Wheat; 2 WAT, 0.28 kg/h): 1 (25-49% control)
- post-emergence herbicidal activity index (Wheat; 2 WAT, 1.12 kg/h): 1 (25-49% control)
- post-emergence herbicidal activity index (Wheat; 2 WAT, 5.6 kg/h): 2 (50-74% control)
- post-emergence herbicidal activity index (Wheat; 4 WAT, 1.12 kg/h): 0 (0-24% control)
- post-emergence herbicidal activity index (Wheat; 4 WAT, 5.6 kg/h): 3 (75-99% control)
- post-emergence herbicidal activity index (Cocklebur; Table I, 4 WAT, 5.6 kg/h): 2 (50-74% control)
- post-emergence herbicidal activity index (Cocklebur; Table I, 4 WAT, 11.2 kg/h): 3 (75-99% control)
- post-emergence herbicidal activity index (Cocklebur; Table II, 2 WAT, 0.056 kg/h): 0 (0-24% control)
- post-emergence herbicidal activity index (Cocklebur; Table II, 2 WAT, 0.28 kg/h): 1 (25-49% control)
- post-emergence herbicidal activity index (Cocklebur; Table II, 2 WAT, 1.12 kg/h): 1 (25-49% control)
- post-emergence herbicidal activity index (Cocklebur; Table II, 2 WAT, 5.6 kg/h): 2 (50-74% control)
- post-emergence herbicidal activity index (Cocklebur; Table II, 4 WAT, 1.12 kg/h): 1 (25-49% control)
- post-emergence herbicidal activity index (Cocklebur; Table II, 4 WAT, 5.6 kg/h): 3 (75-99% control)
- post-emergence herbicidal activity index (Quackgrass; 5.6 kg/h): 2 (50-74% control)
- post-emergence herbicidal activity index (Quackgrass; 11.2 kg/h): 1 (25-49% control)
- post-emergence herbicidal activity index (Yellow Nutsedge; 5.6 kg/h): 2 (50-74% control)
- post-emergence herbicidal activity index (Yellow Nutsedge; 11.2 kg/h): 2 (50-74% control)
- post-emergence herbicidal activity index (Wild Buckwheat; 2 WAT, 0.056 kg/h): 0 (0-24% control)
- post-emergence herbicidal activity index (Wild Buckwheat; 2 WAT, 0.28 kg/h): 1 (25-49% control)
- post-emergence herbicidal activity index (Wild Buckwheat; 2 WAT, 1.12 kg/h): 0 (0-24% control)
- post-emergence herbicidal activity index (Wild Buckwheat; 2 WAT, 5.6 kg/h): 2 (50-74% control)
- post-emergence herbicidal activity index (Wild Buckwheat; 4 WAT, 1.12 kg/h): 0 (0-24% control)
- post-emergence herbicidal activity index (Wild Buckwheat; 4 WAT, 5.6 kg/h): 3 (75-99% control)
- post-emergence herbicidal activity index (Rice; 2 WAT, 0.056 kg/h): 0 (0-24% control)
- post-emergence herbicidal activity index (Rice; 2 WAT, 0.28 kg/h): 0 (0-24% control)
- post-emergence herbicidal activity index (Rice; 2 WAT, 1.12 kg/h): 0 (0-24% control)
- post-emergence herbicidal activity index (Rice; 2 WAT, 5.6 kg/h): 3 (75-99% control)
- post-emergence herbicidal activity index (Rice; 4 WAT, 1.12 kg/h): 0 (0-24% control)
- post-emergence herbicidal activity index (Rice; 4 WAT, 5.6 kg/h): 3 (75-99% control)
- post-emergence herbicidal activity index (Morningglory; Table I, 4 WAT, 5.6 kg/h): 2 (50-74% control)
- post-emergence herbicidal activity index (Morningglory; Table I, 4 WAT, 11.2 kg/h): 2 (50-74% control)
- post-emergence herbicidal activity index (Morningglory; Table II, 2 WAT, 0.056 kg/h): 0 (0-24% control)
- post-emergence herbicidal activity index (Morningglory; Table II, 2 WAT, 0.28 kg/h): 1 (25-49% control)
- post-emergence herbicidal activity index (Morningglory; Table II, 2 WAT, 1.12 kg/h): 1 (25-49% control)
- post-emergence herbicidal activity index (Morningglory; Table II, 2 WAT, 5.6 kg/h): 2 (50-74% control)
- post-emergence herbicidal activity index (Morningglory; Table II, 4 WAT, 1.12 kg/h): 0 (0-24% control)
- post-emergence herbicidal activity index (Morningglory; Table II, 4 WAT, 5.6 kg/h): 2 (50-74% control)
- post-emergence herbicidal activity index (Johnsongrass; 5.6 kg/h): 3 (75-99% control)
- post-emergence herbicidal activity index (Johnsongrass; 11.2 kg/h): 4 (100% control)
- post-emergence herbicidal activity index (Canada Thistle; 5.6 kg/h): 4 (100% control)
- post-emergence herbicidal activity index (Canada Thistle; 11.2 kg/h): 4 (100% control)
- post-emergence herbicidal activity index (Velvetleaf; Table I, 4 WAT, 5.6 kg/h): 1 (25-49% control)
- post-emergence herbicidal activity index (Velvetleaf; Table I, 4 WAT, 11.2 kg/h): 1 (25-49% control)
- post-emergence herbicidal activity index (Velvetleaf; Table II, 2 WAT, 0.056 kg/h): 0 (0-24% control)
- post-emergence herbicidal activity index (Velvetleaf; Table II, 2 WAT, 0.28 kg/h): 0 (0-24% control)
- post-emergence herbicidal activity index (Velvetleaf; Table II, 2 WAT, 1.12 kg/h): 1 (25-49% control)
- post-emergence herbicidal activity index (Velvetleaf; Table II, 2 WAT, 5.6 kg/h): 2 (50-74% control)
- post-emergence herbicidal activity index (Velvetleaf; Table II, 4 WAT, 1.12 kg/h): 0 (0-24% control)
- post-emergence herbicidal activity index (Velvetleaf; Table II, 4 WAT, 5.6 kg/h): 2 (50-74% control)
- post-emergence herbicidal activity index (Smartweed; 5.6 kg/h): 2 (50-74% control)
- post-emergence herbicidal activity index (Smartweed; 11.2 kg/h): 4 (100% control)
- post-emergence herbicidal activity index (Crabgrass; 2 WAT, 0.056 kg/h): 0 (0-24% control)
- post-emergence herbicidal activity index (Crabgrass; 2 WAT, 0.28 kg/h): 1 (25-49% control)
- post-emergence herbicidal activity index (Crabgrass; 2 WAT, 1.12 kg/h): 3 (75-99% control)
- post-emergence herbicidal activity index (Crabgrass; 2 WAT, 5.6 kg/h): 4 (100% control)
- post-emergence herbicidal activity index (Crabgrass; 4 WAT, 1.12 kg/h): 3 (75-99% control)
- post-emergence herbicidal activity index (Crabgrass; 4 WAT, 5.6 kg/h): 4 (100% control)
- post-emergence herbicidal activity index (Barnyardgrass; Table I, 4 WAT, 5.6 kg/h): 2 (50-74% control)
- post-emergence herbicidal activity index (Barnyardgrass; Table I, 4 WAT, 11.2 kg/h): 3 (75-99% control)
- post-emergence herbicidal activity index (Barnyardgrass; Table II, 2 WAT, 0.056 kg/h): 0 (0-24% control)
- post-emergence herbicidal activity index (Barnyardgrass; Table II, 2 WAT, 0.28 kg/h): 0 (0-24% control)
- post-emergence herbicidal activity index (Barnyardgrass; Table II, 2 WAT, 1.12 kg/h): 1 (25-49% control)
- post-emergence herbicidal activity index (Barnyardgrass; Table II, 2 WAT, 5.6 kg/h): 3 (75-99% control)
- post-emergence herbicidal activity index (Barnyardgrass; Table II, 4 WAT, 1.12 kg/h): 1 (25-49% control)
- post-emergence herbicidal activity index (Barnyardgrass; Table II, 4 WAT, 5.6 kg/h): 3 (75-99% control)
- post-emergence herbicidal activity index (Sorghum; 2 WAT, 0.056 kg/h): 0 (0-24% control)
- post-emergence herbicidal activity index (Sorghum; 2 WAT, 0.28 kg/h): 1 (25-49% control)
- post-emergence herbicidal activity index (Sorghum; 2 WAT, 1.12 kg/h): 1 (25-49% control)
- post-emergence herbicidal activity index (Sorghum; 2 WAT, 5.6 kg/h): 2 (50-74% control)
- post-emergence herbicidal activity index (Sorghum; 4 WAT, 1.12 kg/h): 2 (50-74% control)
- post-emergence herbicidal activity index (Sorghum; 4 WAT, 5.6 kg/h): 3 (75-99% control)
- post-emergence herbicidal activity index (Soybean; 2 WAT, 0.056 kg/h): 0 (0-24% control)
- post-emergence herbicidal activity index (Soybean; 2 WAT, 0.28 kg/h): 0 (0-24% control)
- post-emergence herbicidal activity index (Soybean; 2 WAT, 1.12 kg/h): 1 (25-49% control)
- post-emergence herbicidal activity index (Soybean; 2 WAT, 5.6 kg/h): 2 (50-74% control)
- post-emergence herbicidal activity index (Soybean; 4 WAT, 1.12 kg/h): 1 (25-49% control)
- post-emergence herbicidal activity index (Soybean; 4 WAT, 5.6 kg/h): 2 (50-74% control)
- post-emergence herbicidal activity index (Hemp Sesbania; 2 WAT, 0.056 kg/h): 0 (0-24% control)
- post-emergence herbicidal activity index (Hemp Sesbania; 2 WAT, 0.28 kg/h): 0 (0-24% control)
- post-emergence herbicidal activity index (Hemp Sesbania; 2 WAT, 1.12 kg/h): 0 (0-24% control)
- post-emergence herbicidal activity index (Hemp Sesbania; 2 WAT, 5.6 kg/h): 1 (25-49% control)
- post-emergence herbicidal activity index (Hemp Sesbania; 4 WAT, 1.12 kg/h): 0 (0-24% control)
- post-emergence herbicidal activity index (Hemp Sesbania; 4 WAT, 5.6 kg/h): 1 (25-49% control)
- post-emergence herbicidal activity index (Sugar Beet; 2 WAT, 0.056 kg/h): 0 (0-24% control)
- post-emergence herbicidal activity index (Sugar Beet; 2 WAT, 0.28 kg/h): 0 (0-24% control)
- post-emergence herbicidal activity index (Sugar Beet; 2 WAT, 1.12 kg/h): 0 (0-24% control)
- post-emergence herbicidal activity index (Sugar Beet; 2 WAT, 5.6 kg/h): 1 (25-49% control)
- post-emergence herbicidal activity index (Sugar Beet; 4 WAT, 1.12 kg/h): 0 (0-24% control)
- post-emergence herbicidal activity index (Sugar Beet; 4 WAT, 5.6 kg/h): 1 (25-49% control)
- post-emergence herbicidal activity index (Downy Brome; Table I, 4 WAT, 5.6 kg/h): 3 (75-99% control)
- post-emergence herbicidal activity index (Downy Brome; Table I, 4 WAT, 11.2 kg/h): 2 (50-74% control)
- post-emergence herbicidal activity index (Downy Brome; Table II, 2 WAT, 0.056 kg/h): 0 (0-24% control)
- post-emergence herbicidal activity index (Downy Brome; Table II, 2 WAT, 0.28 kg/h): 0 (0-24% control)
- post-emergence herbicidal activity index (Downy Brome; Table II, 2 WAT, 1.12 kg/h): 1 (25-49% control)
- post-emergence herbicidal activity index (Downy Brome; Table II, 2 WAT, 5.6 kg/h): 1 (25-49% control)
- post-emergence herbicidal activity index (Downy Brome; Table II, 4 WAT, 1.12 kg/h): 0 (0-24% control)
- post-emergence herbicidal activity index (Downy Brome; Table II, 4 WAT, 5.6 kg/h): 1 (25-49% control)
- post-emergence herbicidal activity index (Panicum Spp; 2 WAT, 0.056 kg/h): 0 (0-24% control)
- post-emergence herbicidal activity index (Panicum Spp; 2 WAT, 0.28 kg/h): 0 (0-24% control)
- post-emergence herbicidal activity index (Panicum Spp; 2 WAT, 1.12 kg/h): 0 (0-24% control)
- post-emergence herbicidal activity index (Panicum Spp; 2 WAT, 5.6 kg/h): 1 (25-49% control)
- post-emergence herbicidal activity index (Panicum Spp; 4 WAT, 1.12 kg/h): 0 (0-24% control)
- post-emergence herbicidal activity index (Panicum Spp; 4 WAT, 5.6 kg/h): 2 (50-74% control)
- post-emergence herbicidal activity index (Lambsquarters; Table I, 4 WAT, 5.6 kg/h): 3 (75-99% control)
- post-emergence herbicidal activity index (Lambsquarters; Table I, 4 WAT, 11.2 kg/h): 4 (100% control)
- post-emergence herbicidal activity index (Lambsquarters; Table II, 2 WAT, 0.056 kg/h): 0 (0-24% control)
- post-emergence herbicidal activity index (Lambsquarters; Table II, 2 WAT, 0.28 kg/h): 1 (25-49% control)
- post-emergence herbicidal activity index (Lambsquarters; Table II, 2 WAT, 1.12 kg/h): 1 (25-49% control)
- post-emergence herbicidal activity index (Lambsquarters; Table II, 2 WAT, 5.6 kg/h): 3 (75-99% control)
- post-emergence herbicidal activity index (Lambsquarters; Table II, 4 WAT, 1.12 kg/h): 0 (0-24% control)
- post-emergence herbicidal activity index (Lambsquarters; Table II, 4 WAT, 5.6 kg/h): 4 (100% control)
